Source: article PMC6930600, “Synthesis of Aryl Propionamide Scaffold Containing a Pentafluorosulfanyl Moiety as SARMs” (Molecules, 2019)

Biological target: T1, androgen receptor (AR) (Homo sapiens, UniProt P10275)
T1 construct: AR expressed transiently from plasmid pSVAR0 (known as a human full-length AR expression vector)
T1 sequence (P10275 1-920): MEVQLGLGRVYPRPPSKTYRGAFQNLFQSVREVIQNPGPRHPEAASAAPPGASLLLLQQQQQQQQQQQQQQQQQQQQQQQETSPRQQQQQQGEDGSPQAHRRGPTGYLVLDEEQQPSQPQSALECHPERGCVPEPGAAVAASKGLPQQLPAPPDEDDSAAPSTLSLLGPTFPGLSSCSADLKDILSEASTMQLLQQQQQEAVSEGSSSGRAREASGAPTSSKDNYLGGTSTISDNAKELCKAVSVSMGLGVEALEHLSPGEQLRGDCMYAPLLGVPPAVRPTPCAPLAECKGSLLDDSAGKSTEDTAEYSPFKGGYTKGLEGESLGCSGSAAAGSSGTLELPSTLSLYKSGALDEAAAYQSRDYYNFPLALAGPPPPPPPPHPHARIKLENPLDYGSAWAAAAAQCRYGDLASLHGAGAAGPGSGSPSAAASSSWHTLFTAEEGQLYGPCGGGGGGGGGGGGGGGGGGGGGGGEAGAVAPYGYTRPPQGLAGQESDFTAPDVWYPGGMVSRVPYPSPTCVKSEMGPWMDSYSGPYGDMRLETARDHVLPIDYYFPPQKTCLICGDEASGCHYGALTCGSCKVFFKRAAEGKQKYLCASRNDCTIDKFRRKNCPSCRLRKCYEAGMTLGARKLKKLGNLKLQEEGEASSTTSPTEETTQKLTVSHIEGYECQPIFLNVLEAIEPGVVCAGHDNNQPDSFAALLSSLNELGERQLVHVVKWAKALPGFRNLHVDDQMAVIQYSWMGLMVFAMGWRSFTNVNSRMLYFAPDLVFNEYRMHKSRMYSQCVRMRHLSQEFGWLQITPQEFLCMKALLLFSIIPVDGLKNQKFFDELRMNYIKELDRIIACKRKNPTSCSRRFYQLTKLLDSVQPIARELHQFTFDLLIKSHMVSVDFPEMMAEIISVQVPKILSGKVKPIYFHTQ
Experiment: MMTV-luciferase reporter gene agonist assay, transfected CV-1 cells
Type: cell-based
Conditions: agonist mode, […] h, […] °C
Description: MMTV-luciferase reporter gene agonist assay, transfected CV-1 cells on androgen receptor (AR)

Structure (SMILES)	Agonist activity in CV-1 / EC50 (unreliable) [nM]	Agonist activity in CV-1 / EC50 (unreliable (above top tested concentration […])) [nM]
C[C@](O)(COc1ccc(C#N)cc1)C(=O)Nc1cccc(S(F)(F)(F)(F)F)c1 [12a, (S)-3-(4-cyanophenoxy)-2-hydroxy-2-methyl-N-(3-(pentafluoro-l6-sulfanyl)phenyl)propanamide]	1508 ± 429.9	
C[C@](O)(COc1ccc(F)cc1)C(=O)Nc1cccc(S(F)(F)(F)(F)F)c1 [12b, (S)-3-(4-fluorophenoxy)-2-hydroxy-2-methyl-N-(3-(pentafluoro-l6-sulfanyl)phenyl)propanamide]		51213.5 ± 5806.1
C[C@](O)(COc1ccc(Cl)cc1)C(=O)Nc1cccc(S(F)(F)(F)(F)F)c1 [12c, (S)-3-(4-chlorophenoxy)-2-hydroxy-2-methyl-N-(3-(pentafluoro-l6-sulfanyl)phenyl)propanamide]	1282 ± 79.2	
CCC(=O)c1ccc(OC[C@](C)(O)C(=O)Nc2cccc(S(F)(F)(F)(F)F)c2)cc1 [12f, (S)-2-hydroxy-2-methyl-N-(3-(pentafluoro-l6-sulfanyl)phenyl)-3-(4-propionylphenoxy)propanamide]	12733.5 ± 2144.7	
COc1ccc(OC[C@](C)(O)C(=O)Nc2ccc(S(F)(F)(F)(F)F)cc2)c(F)c1 [16g, (S)-3-(2-fluoro-4-methoxyphenoxy)-2-hydroxy-2-methyl-N-(4-(pentafluorosulfanyl)phenyl)propanamide]	2144.0 ± 694.4	
